Test results: patent publication US10597388B2, “Pyridazinone herbicides” (FMC CORPORATION, priority 2014, dated 2020)

Key:
Test in all cases: Test C greenhouse herbicide test, pre- and postemergence
Format in all cases: in vivo
[1] = tested on: wheat (winter wheat, Triticum aestivum)
Outline: (§1)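 Percent-control ratings (0 none, 100 complete) came from visual comparison with controls held alongside in the greenhouse for 13–15 d. Treatments covered soil application at sowing and foliar application to young plants 2–18 cm tall.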

[2] = tested on: ryegrass, Italian (Italian ryegrass, Lolium multiflorum)
Outline: as §1

[3] = tested on: lambsquarters (Chenopodium album)
Outline: as §1

[4] = tested on: velvetleaf (Abutilon theophrasti)
Outline: as §1

[5] = tested on: johnsongrass (Sorghum halepense)
Outline: as §1

[6] = tested on: ragweed (common ragweed, Ambrosia elatior)
Outline: as §1

[7] = tested on: foxtail, giant (giant foxtail, Setaria faberii)
Outline: as §1

[8] = tested on: galium (catchweed bedstraw, Galium aparine)
Outline: as §1

corn (Zea mays) = tested on: corn (Zea mays)
Outline: as §1

[9] = tested on: pigweed (Amaranthus retroflexus)
Outline: as §1

[10] = tested on: nutsedge, yellow (yellow nutsedge, Cyperus esculentus)
Outline: as §1

[11] = tested on: waterhemp (common waterhemp, Amaranthus rudis)
Outline: as §1

[12] = tested on: barnyardgrass (Echinochloa crus-galli)
Outline: as §1

soybean (Glycine max) = tested on: soybean (Glycine max)
Outline: as §1

[13] = tested on: morningglory (Ipomoea coccinea)
Outline: as §1

[14] = tested on: blackgrass (Alopecurus myosuroides)
Outline: as §1

[15] = Postemergence, 31 g ai/ha, scale 0 to 100 (0 no effect, 100 complete control)
[16] = Postemergence, 125 g ai/ha, scale 0 to 100, 0 is no effect, 100 is complete control
[17] = Postemergence, 250 g ai/ha, scale 0 to 100, 0 no effect, 100 complete control, 13 to 15 d
[18] = Preemergence, 31 g ai/ha, scale 0 to 100, 0 is no effect, 100 is complete control
[19] = Preemergence, 62 g ai/ha, scale 0 to 100, 0 is no effect, 100 is complete control
[20] = Preemergence, 125 g ai/ha, scale 0 to 100, 0 is no effect, 100 is complete control
[21] = Preemergence, 250 g ai/ha, scale 0 to 100 (0 no effect, 100 complete control)
[22] = postemergence, 62 g ai/ha, scale 0 to 100, 0 no effect, 100 complete control

With CCCC(=O)Oc1c(C)nn(C)c(=O)c1-c1c(C)sc2c(C)cc(C)cc12 [Compound 106] as the compound, how does the “Plant response rating, Wheat” value [1, 15] read?
The value was 0.

And the “Plant response rating, Wheat” value [1, 16]?
The value was 0.

What about the “Plant response rating, Wheat” value [1, 17] of the same compound?
Its value is 5.

And the “Plant response rating, Wheat” value [1, 18]?
Its value is 15.

And the “Plant response rating, Wheat” value [1, 19]?
Its value is 0.

And the “Plant response rating, Wheat” value [1, 20]?
Its value is 0.

And the “Wheat plant response rating” value [1, 21]?
Its value is 0.

What about the “Plant response rating, Ryegrass, Italian” value [2, 15] of the same compound?
Its value is 85.

And the “Plant response rating, Ryegrass, Italian” value [2, 16]?
The value was 90.

What about the “Plant response rating, Ryegrass, Italian” value [2, 17] of the same compound?
Its value is 35.

What about the “Plant response rating, Ryegrass, Italian” value [2, 18] of the same compound?
The value was 50.

And the “Plant response rating, Ryegrass, Italian” value [2, 19]?
Its value is 70.

What about the “Plant response rating, Ryegrass, Italian” value [2, 20] of the same compound?
The value was 85.

What about the “Ryegrass, Italian plant response rating” value [2, 21] of the same compound?
The value was 90.

What about the “Plant response rating, Lambsquarters” value [3, 15] of the same compound?
Its value is 85.

What about the “Plant response rating, Lambsquarters” value [3, 16] of the same compound?
Its value is 95.

What about the “Plant response rating, Lambsquarters” value [3, 17] of the same compound?
Its value is 98.

And the “Plant response rating, Lambsquarters” value [3, 18]?
Its value is 90.

What about the “Plant response rating, Lambsquarters” value [3, 19] of the same compound?
Its value is 90.

And the “Plant response rating, Lambsquarters” value [3, 20]?
Its value is 100.

What about the “Lambsquarters plant response rating” value [3, 21] of the same compound?
Its value is 100.

What about the “Plant response rating, Velvetleaf” value [4, 15] of the same compound?
The value was 80.

What about the “Plant response rating, Velvetleaf” value [4, 16] of the same compound?
The value was 90.

And the “Plant response rating, Velvetleaf” value [4, 17]?
The value was 100.

And the “Plant response rating, Velvetleaf” value [4, 18]?
The value was 40.

And the “Plant response rating, Velvetleaf” value [4, 19]?
The value was 60.

And the “Plant response rating, Velvetleaf” value [4, 20]?
Its value is 85.

What about the “Velvetleaf plant response rating” value [4, 21] of the same compound?
Its value is 90.

And the “Plant response rating, Johnsongrass” value [5, 15]?
The value was 5.

And the “Plant response rating, Johnsongrass” value [5, 16]?
The value was 10.

And the “Plant response rating, Johnsongrass” value [5, 17]?
Its value is 10.

And the “Plant response rating, Johnsongrass” value [5, 18]?
Its value is 5.

What about the “Plant response rating, Johnsongrass” value [5, 19] of the same compound?
Its value is 5.

What about the “Plant response rating, Johnsongrass” value [5, 20] of the same compound?
Its value is 5.

What about the “Johnsongrass plant response rating” value [5, 21] of the same compound?
The value was 15.

And the “Plant response rating, Ragweed” value [6, 15]?
The value was 80.

What about the “Plant response rating, Ragweed” value [6, 16] of the same compound?
The value was 75.

And the “Plant response rating, Ragweed” value [6, 17]?
Its value is 98.

What about the “Plant response rating, Ragweed” value [6, 18] of the same compound?
Its value is 85.

What about the “Plant response rating, Ragweed” value [6, 19] of the same compound?
Its value is 90.

And the “Plant response rating, Ragweed” value [6, 20]?
The value was 95.

What about the “Ragweed plant response rating” value [6, 21] of the same compound?
The value was 95.

What about the “Plant response rating, Foxtail, Giant” value [7, 15] of the same compound?
The value was 70.

What about the “Plant response rating, Foxtail, Giant” value [7, 16] of the same compound?
Its value is 90.

And the “Plant response rating, Foxtail, Giant” value [7, 17]?
Its value is 95.

And the “Plant response rating, Foxtail, Giant” value [7, 18]?
Its value is 85.

What about the “Plant response rating, Foxtail, Giant” value [7, 19] of the same compound?
Its value is 95.

What about the “Plant response rating, Foxtail, Giant” value [7, 20] of the same compound?
The value was 100.

And the “Foxtail, Giant plant response rating” value [7, 21]?
The value was 100.

What about the “Plant response rating, Galium” value [8, 15] of the same compound?
Its value is 95.

And the “Plant response rating, Galium” value [8, 16]?
Its value is 95.

And the “Plant response rating, Galium” value [8, 17]?
Its value is 100.

What about the “Plant response rating, Galium” value [8, 18] of the same compound?
Its value is 90.

And the “Plant response rating, Galium” value [8, 19]?
Its value is 90.

What about the “Plant response rating, Galium” value [8, 20] of the same compound?
The value was 95.

What about the “Galium plant response rating” value [8, 21] of the same compound?
Its value is 95.

What about the “Plant response rating, Corn” value (corn (Zea mays); [15]) of the same compound?
The value was 0.

And the “Plant response rating, Corn” value (corn (Zea mays); [16])?
Its value is 10.

What about the “Plant response rating, Corn” value (corn (Zea mays); [17]) of the same compound?
The value was 10.

What about the “Plant response rating, Corn” value (corn (Zea mays); [18]) of the same compound?
Its value is 0.

What about the “Plant response rating, Corn” value (corn (Zea mays); [19]) of the same compound?
The value was 0.

And the “Plant response rating, Corn” value (corn (Zea mays); [20])?
The value was 10.

And the “Corn plant response rating” value (corn (Zea mays); [21])?
The value was 20.

And the “Corn plant response rating” value (corn (Zea mays); [22])?
The value was 10.

What about the “Plant response rating, Pigweed” value [9, 15] of the same compound?
Its value is 70.

What about the “Plant response rating, Pigweed” value [9, 16] of the same compound?
The value was 90.

And the “Plant response rating, Pigweed” value [9, 17]?
Its value is 90.

What about the “Plant response rating, Pigweed” value [9, 18] of the same compound?
The value was 98.

What about the “Plant response rating, Pigweed” value [9, 19] of the same compound?
Its value is 98.

And the “Plant response rating, Pigweed” value [9, 20]?
Its value is 100.

What about the “Pigweed plant response rating” value [9, 21] of the same compound?
The value was 100.

What about the “Plant response rating, Nutsedge, Yellow” value [10, 15] of the same compound?
The value was 65.

And the “Plant response rating, Nutsedge, Yellow” value [10, 16]?
The value was 90.

What about the “Plant response rating, Nutsedge, Yellow” value [10, 17] of the same compound?
The value was 80.

And the “Plant response rating, Nutsedge, Yellow” value [10, 18]?
Its value is 60.

And the “Plant response rating, Nutsedge, Yellow” value [10, 19]?
The value was 70.

What about the “Plant response rating, Nutsedge, Yellow” value [10, 20] of the same compound?
Its value is 80.

And the “Nutsedge, Yellow plant response rating” value [10, 21]?
Its value is 90.

And the “Plant response rating, Waterhemp” value [11, 15]?
The value was 65.

And the “Plant response rating, Waterhemp” value [11, 16]?
The value was 75.

What about the “Plant response rating, Waterhemp” value [11, 17] of the same compound?
Its value is 80.

And the “Plant response rating, Waterhemp” value [11, 18]?
The value was 70.

What about the “Plant response rating, Waterhemp” value [11, 19] of the same compound?
Its value is 75.

What about the “Plant response rating, Waterhemp” value [11, 20] of the same compound?
Its value is 80.

What about the “Waterhemp plant response rating” value [11, 21] of the same compound?
The value was 90.

What about the “Plant response rating, Barnyardgrass” value [12, 15] of the same compound?
Its value is 15.

And the “Plant response rating, Barnyardgrass” value [12, 16]?
The value was 20.

And the “Plant response rating, Barnyardgrass” value [12, 17]?
Its value is 40.

And the “Plant response rating, Barnyardgrass” value [12, 18]?
The value was 25.

What about the “Plant response rating, Barnyardgrass” value [12, 19] of the same compound?
Its value is 45.

What about the “Plant response rating, Barnyardgrass” value [12, 20] of the same compound?
Its value is 85.

What about the “Barnyardgrass plant response rating” value [12, 21] of the same compound?
Its value is 95.

And the “Barnyardgrass plant response rating” value [12, 22]?
Its value is 15.

What about the “Plant response rating, Soybean” value (soybean (Glycine max); [15]) of the same compound?
Its value is 0.

What about the “Plant response rating, Soybean” value (soybean (Glycine max); [16]) of the same compound?
Its value is 0.

And the “Plant response rating, Soybean” value (soybean (Glycine max); [17])?
The value was 10.

And the “Plant response rating, Soybean” value (soybean (Glycine max); [18])?
Its value is 0.

And the “Plant response rating, Soybean” value (soybean (Glycine max); [19])?
The value was 0.

And the “Plant response rating, Soybean” value (soybean (Glycine max); [20])?
The value was 0.

What about the “Soybean plant response rating” value (soybean (Glycine max); [21]) of the same compound?
The value was 0.

And the “Plant response rating, Morningglory” value [13, 15]?
Its value is 100.

What about the “Plant response rating, Morningglory” value [13, 16] of the same compound?
Its value is 100.

And the “Plant response rating, Morningglory” value [13, 17]?
The value was 98.

And the “Plant response rating, Morningglory” value [13, 18]?
Its value is 85.

And the “Plant response rating, Morningglory” value [13, 19]?
Its value is 90.

What about the “Plant response rating, Morningglory” value [13, 20] of the same compound?
Its value is 98.

And the “Morningglory plant response rating” value [13, 21]?
The value was 98.

And the “Plant response rating, Blackgrass” value [14, 15]?
The value was 45.

And the “Plant response rating, Blackgrass” value [14, 16]?
The value was 60.

What about the “Plant response rating, Blackgrass” value [14, 17] of the same compound?
Its value is 75.

And the “Plant response rating, Blackgrass” value [14, 18]?
Its value is 10.

What about the “Plant response rating, Blackgrass” value [14, 19] of the same compound?
Its value is 50.

And the “Plant response rating, Blackgrass” value [14, 20]?
Its value is 90.

And the “Blackgrass plant response rating” value [14, 21]?
The value was 85.

And the “Blackgrass plant response rating” value [14, 22]?
Its value is 50.
